Data set [1] can be described thus: Cytotoxicity by neutral red dye uptake in 2.2.15 cells. Conditions: human, 2.2.15 cells (confluent cultures, HBV-replicating). The format is cell-based.
Data set [2] concerns HBV mutant rtM204I. Briefly: Intracellular HBV DNA replication assay, transient transfection, rtM204I. The format is cell-based. To be noted: Hepatitis B virus, 96 h.
In data set [3] the test system is HBV mutant rtM204V. Briefly: Intracellular HBV DNA replication assay, transient transfection, rtM204V. The format is cell-based. To be noted: Hepatitis B virus, 96 h.
Data set [4] concerns HBV WT. Put plainly: Intracellular HBV DNA replication assay, transient transfection, WT. To be noted: Hepatitis B virus, 96 h. The format is cell-based.
Data set [5] concerns HBV mutant rtL180M. Briefly: Intracellular HBV DNA replication assay, transient transfection, rtL180M. Type of data set: cell-based. Conditions: Hepatitis B virus, 96 h.
In data set [6] the test system is wild type HBV. Briefly: HBV antiviral assay in 2.2.15 cells, HBV DNA by quantitative blot hybridization. Type of data set: cell-based. Conditions: read-out: Anti-HCV activity EC50(µM) virion, extracellular virion HBV DNA, nine consecutive daily doses.
Data set [7] has as its system 2.2.15 cells. Put plainly: Cytotoxicity by neutral red dye uptake in 2.2.15 cells. Type of data set: cell-based. Conditions: read-out: Cytotoxicity IC50; 2.2.15 cells, neutral red dye uptake.
Data set [8] concerns Huh7 ET cells.
The subject of data set [9] is HCV RNA replicon. Put plainly: HCV RNA replicon assay in Huh7 ET cells. The format is cell-based. Conditions: in comparison to the parent compound 2. Background: In antiviral work, replicon cells carry a viral genome segment that copies itself.

Bounds are passed on as bounds.

A word on the IC50: it is the concentration that gives 50% inhibition. The molecule `Nc1ncnc2c1c(I)cn2[C@@H]1C=C(CO)[C@@H](O)[C@H]1O` [Compound 15, (-)-(1R, 2S, 3R)-4-Amino-5-iodo-7-[2,3-dihydroxy-4-hydroxymethyl-4-cyclopenten-1-yl] -7H-pyrrolo[2,3-d] pyrimidine] showed an IC50 at 9 days in data set [1] greater than 300 µM.
As a reminder, the EC50 is the concentration at which the effect is half-maximal. Take `C#Cc1cn([C@@H]2C=C(CO)[C@@H](O)[C@H]2O)c2ncnc(N)c12` [Compound 24, (-)-(1R, 2S, 3R)-4-Amino-5-ethynyl-7-[2,3-dihydroxy-4-hydroxymethyl-4-cyclopenten-1-yl]-7H-pyrrolo[2,3-d]pyrimidine]: the 50% effective concentration (EC50) in data set [2] was 3 µM; in data set [3], 2.1 µM; in [4], 2.5 µM; in [5], 2 µM. In [1], the concentration for half-maximal inhibition (IC50) at 9 days was greater than 300 µM.
In data set [1], `Nc1ccn([C@@H]2CS[C@H](CO)O2)c(=O)n1` [Compound 3TC, lamivudine, reference compound] yielded a half-inhibitory concentration (IC50) at 9 days greater than 2000 µM.
Turning to “4-amino-7-(2,3-dihydroxy-4-hydroxymethyl-4-cyclopenten-1-yl)-7H-pyrrolo[2,3-d]pyrimidine [Compound 2]”, in data set [6], the concentration giving a half-maximal response (EC50) came to 0.6 µM. Further, the 50% inhibitory concentration (IC50) in [7] is 22 µM; in data set [8] it was greater than 100 µM.
For `Nc1ncnc2c1c(F)cn2[C@@H]1C=C(CO)[C@@H](O)[C@H]1O` [Compound 12, (-)-(1R, 2S, 3R)-4-Amino-5-fluoro-7-[2,3-dihydroxy-4-hydroxymethyl-4-cyclopenten-1-yl]-7H-pyrrolo[2,3-d]pyrimidine], the “anti-HCV activity (in words)” value in [9] was “devoid of anti-HCV activity”.
As for `C=Cc1cn([C@@H]2C=C(CO)[C@@H](O)[C@H]2O)c2ncnc(N)c12` [Compound 22, (-)-(1R, 2S, 3R)-4-Amino-5-ethenyl-7-[2,3-dihydroxy-4-hydroxymethyl-4-cyclopenten-1-yl]-7H-pyrrolo[2,3-d]pyrimidine], the IC50 at 9 days in data set [1] was greater than 300 µM.

The values above are taken from paper PMC2725430 (Journal of medicinal chemistry, 2009).
